The values that follow come from patent US11535599B2, “Benzisoxazole derivative” (Sumitomo Pharma Co., Ltd., priority 2020, dated 2022).

What is called IC50 is the midpoint of a concentration-inhibition curve.

The target in experiment [1] is human Cav3.1 (Homo sapiens (Human), UniProt O43497). In words: T-type calcium channel inhibitory activity, whole-cell patch-clamp with HEK293 cell. It is filed as cell-based. The conditions noted are these: for IC50: dose-reactive test, read-out: Cav3.1 IC50 (parenthesized). The method, then: (§1) The inhibitory activity of the present compounds for T-type calcium channel was measured by whole-cell patch-clamp method with HEK293 cell (vendor of HEK 293 cell: ATCC, Manassas, Va., USA, builder of expressing cell: ChanTest Corporation., Cleveland, Ohio, USA), in which human Cav3.1, human Cav3.2, or human Cav3.3 is expressed. The culture medium used for HEK293 cell was prepared by adding fetal bovine serum (10%), sodium penicillin G (100 U/mL), streptomycin sulfate (100 μg/mL), and G418 (500 μg/mL) to a mixture medium of Dulbecco's modified Eagle's medium/Ham's F-12 medium. The whole-cell current was evaluated with IonWorks Barracuda system and Population Patch Clamp (both are provided by Molecular Device Corporation, Union City, Calif., USA). The extracellular recording solution used during the recording was Hanks' balanced salt solution. The internal recording solution used herein was 50 mmol/L CsCl, 90 mmol/L CsF, 5 mmol/L MgCl2, 1 mmol/L glycol ether diamine tetraacetic acid (EGTA), and 10 mmol/L 4-(2-hydroxyethyl)piperazine-1-ethanesulfonic acid (HEPES (pH 7.2). The holding voltage was held at −90 mV, then changed to −65 mV. 60 seconds later, −20 mV pulse was added thereto for 200 millisecond to activate the channel on plasma membrane and generate calcium current. The calcium current was recorded with an amplifier of IonWorks Barracuda system, and analyzed with a program of the system (Version 2.0.2). The record of the calcium current was obtained twice, before and after the addition of the compound. In the measurement after adding the compound, the cells were exposed to the recording solution containing the compound for more than 5 minutes and then the current was measured. In the analyses, the ratio of current readout after the compound addition per current readout before the compound addition was calculated, the calculated value was subtracted from one, and the obtained value was converted to percentage. […] The value obtained from each compound was canonicalized based on the two ends of values to obtain each inhibitory rate. The positive control compound used herein was TTA-A2 which is known as T-type calcium channel inhibitor. IC50 value was calculated with Hill equation.
human Cav3.1, sequence (O43497 whole entry): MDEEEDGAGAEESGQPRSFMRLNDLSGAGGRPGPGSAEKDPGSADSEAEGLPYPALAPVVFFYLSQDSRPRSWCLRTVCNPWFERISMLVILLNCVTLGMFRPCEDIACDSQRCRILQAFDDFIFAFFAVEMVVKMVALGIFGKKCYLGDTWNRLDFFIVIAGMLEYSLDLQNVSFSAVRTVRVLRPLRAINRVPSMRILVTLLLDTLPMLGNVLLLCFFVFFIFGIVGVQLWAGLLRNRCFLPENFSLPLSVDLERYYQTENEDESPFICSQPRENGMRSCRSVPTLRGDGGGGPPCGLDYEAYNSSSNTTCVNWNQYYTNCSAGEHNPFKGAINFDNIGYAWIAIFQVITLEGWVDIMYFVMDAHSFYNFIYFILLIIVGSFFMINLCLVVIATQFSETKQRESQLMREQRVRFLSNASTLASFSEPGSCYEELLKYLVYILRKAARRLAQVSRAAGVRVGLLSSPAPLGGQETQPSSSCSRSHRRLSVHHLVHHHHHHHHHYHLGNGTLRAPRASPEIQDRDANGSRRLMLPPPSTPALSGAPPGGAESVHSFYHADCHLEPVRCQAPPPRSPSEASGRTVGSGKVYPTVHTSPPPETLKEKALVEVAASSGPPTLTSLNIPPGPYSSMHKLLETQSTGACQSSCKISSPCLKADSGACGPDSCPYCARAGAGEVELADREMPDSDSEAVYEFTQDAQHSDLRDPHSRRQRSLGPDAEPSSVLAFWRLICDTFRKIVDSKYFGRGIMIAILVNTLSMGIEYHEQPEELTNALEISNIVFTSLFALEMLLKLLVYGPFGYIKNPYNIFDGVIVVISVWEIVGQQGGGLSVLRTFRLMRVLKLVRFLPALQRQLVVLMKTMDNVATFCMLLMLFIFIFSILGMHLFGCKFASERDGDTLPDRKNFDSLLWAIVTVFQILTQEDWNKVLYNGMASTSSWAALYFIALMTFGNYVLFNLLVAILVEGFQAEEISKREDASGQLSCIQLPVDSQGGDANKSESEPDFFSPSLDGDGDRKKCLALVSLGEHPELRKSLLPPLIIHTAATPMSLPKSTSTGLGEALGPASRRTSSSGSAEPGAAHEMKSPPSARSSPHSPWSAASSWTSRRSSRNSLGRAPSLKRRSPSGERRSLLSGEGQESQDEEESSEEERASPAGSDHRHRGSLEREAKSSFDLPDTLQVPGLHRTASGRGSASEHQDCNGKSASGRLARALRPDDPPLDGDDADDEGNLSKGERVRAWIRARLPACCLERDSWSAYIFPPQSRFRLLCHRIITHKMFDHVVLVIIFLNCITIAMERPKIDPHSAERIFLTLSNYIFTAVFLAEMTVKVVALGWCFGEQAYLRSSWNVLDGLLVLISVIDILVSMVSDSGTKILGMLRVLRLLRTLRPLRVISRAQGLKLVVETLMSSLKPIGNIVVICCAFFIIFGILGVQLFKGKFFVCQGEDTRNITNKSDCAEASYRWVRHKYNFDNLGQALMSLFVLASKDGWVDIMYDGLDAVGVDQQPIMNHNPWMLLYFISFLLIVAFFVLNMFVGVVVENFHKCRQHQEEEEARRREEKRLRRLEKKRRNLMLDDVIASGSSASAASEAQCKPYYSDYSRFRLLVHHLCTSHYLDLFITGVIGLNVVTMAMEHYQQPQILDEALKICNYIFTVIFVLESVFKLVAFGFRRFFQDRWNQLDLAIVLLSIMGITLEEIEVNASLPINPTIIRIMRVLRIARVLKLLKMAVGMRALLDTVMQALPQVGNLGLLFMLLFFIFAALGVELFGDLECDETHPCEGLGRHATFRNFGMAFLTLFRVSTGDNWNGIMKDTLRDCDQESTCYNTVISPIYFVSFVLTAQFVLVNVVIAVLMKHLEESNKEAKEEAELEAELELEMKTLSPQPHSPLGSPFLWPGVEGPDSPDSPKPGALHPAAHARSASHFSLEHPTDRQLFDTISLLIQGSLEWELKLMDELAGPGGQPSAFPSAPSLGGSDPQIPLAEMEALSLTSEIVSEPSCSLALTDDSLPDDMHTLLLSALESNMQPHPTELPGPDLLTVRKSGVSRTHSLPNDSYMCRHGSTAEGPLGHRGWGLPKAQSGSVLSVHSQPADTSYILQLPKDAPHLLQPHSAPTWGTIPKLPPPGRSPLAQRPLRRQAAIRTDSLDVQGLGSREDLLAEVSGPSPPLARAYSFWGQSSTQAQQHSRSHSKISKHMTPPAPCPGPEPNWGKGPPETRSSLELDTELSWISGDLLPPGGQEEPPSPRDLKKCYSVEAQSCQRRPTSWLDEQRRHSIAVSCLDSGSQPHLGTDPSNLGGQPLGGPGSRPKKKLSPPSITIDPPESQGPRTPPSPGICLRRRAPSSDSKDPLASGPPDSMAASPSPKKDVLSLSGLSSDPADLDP
(§2) Each inhibitory rate (%) against T-type calcium channel at the evaluation concentration of the present compound (600 μmol/L) is shown in Table 12, in which the parenthesized values are IC50 values (μmol/L)) calculated from the dose-reactive test.
For orientation: In patch-clamp work, channel activity is measured electrically.

Experiment [2] concerns the target human Cav3.2 (Homo sapiens (Human), UniProt O95180). The experiment is described as above. Format: cell-based. The settings on record: for IC50: dose-reactive test, read-out: Cav3.2 IC50 (parenthesized). The method, then:
as §1, §2

Experiment [3] concerns the target human Cav3.3 (Homo sapiens (Human), UniProt Q9P0X4). Described as above. Format: cell-based. The conditions noted are these: for IC50: dose-reactive test, read-out: Cav3.3 IC50 (parenthesized). The method, then:
as §1, §2

Experiment [4] has as its system levodopa-induced dyskinesia in 6-OHDA unilateral lesion model. The experiment is described as follows: Effect for inhibiting levodopa-induced dyskinesia. It is filed as in vivo, rat. The settings on record: Examples 30 or 100 mg/kg, rasagiline 0.2 or 0.6 mg/kg, daily for two weeks. The source says: A unilateral lesion model of nigrostriatal dopamine neuron induced with 6-hydroxydopamine (6-OHDA) is broadly used for evaluating the drug efficacy for treating Parkinson's disease, as mentioned in Test 2. In addition, it is known that dyskinesia is developed when the present model receives repetitive administration of levodopa, which is similar to the phenomenon that patients of Parkinson's disease who have received long-term administration of levodopa develop dyskinesia. With the present model, the effect of the present compound on the dyskinesia induced by repetitive administration of levodopa was evaluated. As shown in Test 2, a unilateral lesion model of nigrostriatal dopamine neuron was prepared. One day before starting the repetitive administration of levodopa, levodopa methyl ester hydrochloride (5.86 mg/kg) containing benserazide hydrochloride ([…]) (whose ratio was 4:1 in terms of free form) was intraperitoneally administered to the model, and the rotational behavior of the model was observed from 20 minutes to 140 minutes after the administration. The models were classified considering three factors of the total rotation number (20-140 minutes after the administration), the later term of the rotation (120-140 minutes after the administration), and the rotational duration, so that the dispersion of each group could be equal. Two days after the classification, the repetitive administration of levodopa methyl ester hydrochloride (6 mg/kg) and benserazide hydrochloride (12 mg/kg) once a day for two weeks was started. […] The evaluation of dyskinesia was done after one week and two weeks of the repetitive administration. […]

human Cav3.3, sequence (Q9P0X4 whole entry): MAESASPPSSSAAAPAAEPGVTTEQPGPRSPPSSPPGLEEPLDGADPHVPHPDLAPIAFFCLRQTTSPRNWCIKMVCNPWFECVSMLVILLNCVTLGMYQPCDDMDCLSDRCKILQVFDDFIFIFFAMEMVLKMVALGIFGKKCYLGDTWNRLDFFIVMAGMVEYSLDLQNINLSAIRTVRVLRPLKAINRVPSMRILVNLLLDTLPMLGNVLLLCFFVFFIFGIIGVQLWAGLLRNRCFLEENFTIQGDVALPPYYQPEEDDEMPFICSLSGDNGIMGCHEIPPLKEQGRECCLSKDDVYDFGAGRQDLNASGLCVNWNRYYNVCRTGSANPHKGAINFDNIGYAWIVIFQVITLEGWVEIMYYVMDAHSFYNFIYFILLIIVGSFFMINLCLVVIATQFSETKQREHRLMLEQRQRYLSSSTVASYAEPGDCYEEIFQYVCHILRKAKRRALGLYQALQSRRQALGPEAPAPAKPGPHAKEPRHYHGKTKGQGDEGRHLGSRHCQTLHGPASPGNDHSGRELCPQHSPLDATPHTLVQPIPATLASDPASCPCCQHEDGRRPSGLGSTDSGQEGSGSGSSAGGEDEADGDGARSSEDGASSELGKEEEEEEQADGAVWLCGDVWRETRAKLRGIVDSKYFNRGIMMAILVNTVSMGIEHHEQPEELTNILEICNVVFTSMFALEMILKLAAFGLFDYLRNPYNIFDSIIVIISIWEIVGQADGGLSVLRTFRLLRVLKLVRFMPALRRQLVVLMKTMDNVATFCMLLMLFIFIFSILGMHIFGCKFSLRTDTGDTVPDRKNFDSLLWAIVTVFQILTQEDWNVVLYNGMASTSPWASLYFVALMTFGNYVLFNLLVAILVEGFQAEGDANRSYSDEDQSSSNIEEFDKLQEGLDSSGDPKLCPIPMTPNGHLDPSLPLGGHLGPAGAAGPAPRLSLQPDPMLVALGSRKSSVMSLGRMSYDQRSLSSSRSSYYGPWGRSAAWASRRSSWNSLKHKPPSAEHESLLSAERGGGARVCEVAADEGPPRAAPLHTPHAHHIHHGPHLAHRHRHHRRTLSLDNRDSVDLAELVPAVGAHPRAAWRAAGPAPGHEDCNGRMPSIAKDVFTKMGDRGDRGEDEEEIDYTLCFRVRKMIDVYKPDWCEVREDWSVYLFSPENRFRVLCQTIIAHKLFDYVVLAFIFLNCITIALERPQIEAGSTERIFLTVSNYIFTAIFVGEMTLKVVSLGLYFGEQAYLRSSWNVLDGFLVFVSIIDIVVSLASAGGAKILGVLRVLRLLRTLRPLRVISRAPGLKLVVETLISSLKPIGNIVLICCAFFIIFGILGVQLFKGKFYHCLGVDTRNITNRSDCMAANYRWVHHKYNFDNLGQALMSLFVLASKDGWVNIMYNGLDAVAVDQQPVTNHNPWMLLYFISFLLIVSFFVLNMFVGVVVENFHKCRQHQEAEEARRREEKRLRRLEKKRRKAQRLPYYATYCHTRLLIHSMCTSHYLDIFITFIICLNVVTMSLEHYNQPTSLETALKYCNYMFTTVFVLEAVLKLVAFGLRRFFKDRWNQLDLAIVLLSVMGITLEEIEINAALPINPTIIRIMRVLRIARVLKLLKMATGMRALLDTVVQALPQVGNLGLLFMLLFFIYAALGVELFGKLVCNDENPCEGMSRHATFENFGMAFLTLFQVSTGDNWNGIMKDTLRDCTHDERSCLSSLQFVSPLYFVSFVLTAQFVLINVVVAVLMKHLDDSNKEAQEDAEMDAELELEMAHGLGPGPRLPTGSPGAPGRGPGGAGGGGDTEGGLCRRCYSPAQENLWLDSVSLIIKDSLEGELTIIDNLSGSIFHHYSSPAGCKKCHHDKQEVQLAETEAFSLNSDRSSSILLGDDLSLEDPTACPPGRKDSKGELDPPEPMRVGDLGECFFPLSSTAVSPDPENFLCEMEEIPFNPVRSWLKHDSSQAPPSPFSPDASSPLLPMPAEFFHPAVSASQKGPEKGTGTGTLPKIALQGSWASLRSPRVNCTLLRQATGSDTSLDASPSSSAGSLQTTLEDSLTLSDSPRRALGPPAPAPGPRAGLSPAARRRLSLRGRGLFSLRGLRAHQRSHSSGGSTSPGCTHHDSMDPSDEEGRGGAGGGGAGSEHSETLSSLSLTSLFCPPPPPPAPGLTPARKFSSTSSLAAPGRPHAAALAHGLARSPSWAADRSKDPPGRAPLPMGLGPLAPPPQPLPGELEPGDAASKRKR

With `CC(c1noc2ccccc12)S(N)(=O)=O` (centres unmarked) [Example 1, 1-(Benzo[d]isoxazol-3-yl)ethane-1-sulfonamide], the “Cav3.1 % inhibitory rate” value in experiment [1] (600 μmol/L) was determined as 46.0%. The figures for the IC50 in experiment [1], in experiment [2] and in experiment [3] were 449 µM, 848 µM and 922 µM, respectively. Moreover, in experiment [2] (600 μmol/L), the “Cav3.2 % inhibitory rate” value is 33.0%. Besides, the “Cav3.3 % inhibitory rate” value in experiment [3] (600 μmol/L) was found to be 30.7%. In addition, the “dyskinesia induced by repetitive administration of levodopa (AIMS score)” value in experiment [4] is listed as “the onset of dyskinesia induced by repetitive administration of levodopa was inhibited”.

For the compound `C[C@H](c1noc2ccccc12)S(N)(=O)=O` [Example 13, (1R)-1-(1,2-benzoxazol-3-yl)ethane-1-sulfonamide], the inhibition at 600 µM was 50.9% in experiment [1] (HEK293, 600 μmol/L, read-out: Cav3.1 % inhibitory rate); 42.6% in experiment [2] (HEK293, 600 μmol/L, read-out: Cav3.2 % inhibitory rate); 39.9% in experiment [3] (HEK293, 600 μmol/L, read-out: Cav3.3 % inhibitory rate). Also, the half-inhibitory concentration (IC50) in experiment [1] was 465 µM; in experiment [2], 713 µM; in experiment [3], 746 µM. Further, in experiment [4], the “dyskinesia induced by repetitive administration of levodopa (AIMS score)” value is recorded as “the onset of dyskinesia induced by repetitive administration of levodopa was inhibited”.
